molecular target: T1, Carbonic anhydrase 4 (Bos taurus, UniProt Q95323)
T1 sequence (Q95323 whole entry): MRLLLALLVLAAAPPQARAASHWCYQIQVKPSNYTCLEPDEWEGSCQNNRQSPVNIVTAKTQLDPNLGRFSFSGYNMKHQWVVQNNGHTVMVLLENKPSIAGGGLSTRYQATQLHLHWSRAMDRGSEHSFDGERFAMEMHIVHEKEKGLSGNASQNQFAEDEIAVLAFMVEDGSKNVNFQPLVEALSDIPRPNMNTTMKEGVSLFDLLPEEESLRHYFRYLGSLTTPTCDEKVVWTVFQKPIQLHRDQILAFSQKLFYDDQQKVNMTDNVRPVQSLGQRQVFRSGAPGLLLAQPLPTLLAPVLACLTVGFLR
Description: Inhibitory activity against bovine carbonic anhydrase IV (bCAIV)

Structure (SMILES) | Ki
Nc1ccc(S(=O)(=O)NCc2ccc(S(N)(=O)=O)cc2)cc1 | 50 nM
Nc1cc(C(F)(F)F)c(S(N)(=O)=O)cc1S(N)(=O)=O [2,4-DISULFAMYLTRIFLUOROMETHYLANILINE] | 240 nM
Cc1ccc(-c2cc(C(F)(F)F)nn2-c2ccc(S(N)(=O)=O)cc2)cc1 [CELECOXIB] | 290 nM

molecular target: Carbonic anhydrase 4 (Homo sapiens, UniProt P22748)
Sequence (P22748 whole entry): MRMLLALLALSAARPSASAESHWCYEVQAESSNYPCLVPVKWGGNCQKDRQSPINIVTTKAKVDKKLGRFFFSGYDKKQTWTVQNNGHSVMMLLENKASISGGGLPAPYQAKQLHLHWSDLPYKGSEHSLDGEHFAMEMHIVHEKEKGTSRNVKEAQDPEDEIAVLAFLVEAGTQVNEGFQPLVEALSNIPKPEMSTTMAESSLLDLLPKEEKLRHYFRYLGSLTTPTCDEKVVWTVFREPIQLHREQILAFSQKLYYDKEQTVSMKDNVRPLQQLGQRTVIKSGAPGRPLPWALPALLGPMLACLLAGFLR
Description: Inhibitory activity against human carbonic anhydrase IV (hCAIV)

Structure (SMILES) | Ki
Nc1ccc(S(=O)(=O)NCc2ccc(S(N)(=O)=O)cc2)cc1 | 84 nM
Nc1ccc(S(N)(=O)=O)cc1I | 920 nM
Nc1ccc(S(N)(=O)=O)cc1Br | 96 nM
Nc1cccc(S(N)(=O)=O)c1 | 7750 nM
Nc1ccc(S(N)(=O)=O)cc1F | 910 nM
Nc1ccc(S(N)(=O)=O)cc1Cl | 450 nM
NNc1ccc(S(N)(=O)=O)cc1 | 7700 nM
Cc1ccc(-c2cc(C(F)(F)F)nn2-c2ccc(S(N)(=O)=O)cc2)cc1 [CELECOXIB] | 880 nM
NCc1ccc(S(N)(=O)=O)cc1 [MAFENIDE] | 8600 nM
Nc1ccc(S(N)(=O)=O)cc1 [SULFANILAMIDE] | 9760 nM
CC1(C)O[C@@H]2[C@@H](CO[C@@]3(COS(N)(=O)=O)OC(C)(C)O[C@@H]23)O1 [TOPIRAMATE] | 4900 nM

Source: ChEMBL document CHEMBL1144327, “Carbonic anhydrase inhibitors. Inhibition of the membrane-bound human and bovine isozymes IV with sulfonamides” (Bioorg Med Chem Lett, 2005)
